Measurements from US10188601B2, “Continuous long-term controlled release of telomerase inhibitors” (priority 2013, dated 2019).

Assays:
cellular DNA = test system: cellular DNA
Description: PdTMPyP4 was dissolved directly into medium as described above. After incubation with graded concentrations of PdTMPyp4 added to the medium for 24 or 48 h, the DNA was extracted and digested. […] Details of the methods used to extract the DNA fraction and prepare the samples for ICP-MS are given in Laster B H, et al. Brachytherapy. 2009; 8:324-30.

[1] = single rod per tumor
Description: One PdTMPyP4 rod, prepared according to the Example 1, was implanted into the KHJJ tumor of each of 4 mice as described in the Example 7 above.
Blood was withdrawn from the junction of the submandibular/facial vein, centrifuged, and the clear supernatant removed, diluted 1:100 and measured in double-distilled water (DDW) as described in the Example 10 below.

telomerase = conditions: L428 cells, 24 h incubation, graded concentrations; Pd tag versus H2 tag
Description: L428 cells were incubated for 24 h with graded concentrations of PdTMPyP4 or H2TMPyP4 dissolved in RPMI 1640 complete medium. The activation or inhibition of telomerase was measured using the Telomeric Repeat Amplification Protocol (TRAP) assay. The procedure is detailed in Tichon A, et al, Cytotherapy. 2009; 11:837-48.

[2] = In vitro release of PdTMPyP4 from PLGA rods over time in normal saline; assay type: physicochemical
Description: Eight rods, two each of matching weights, were placed in individual Eppendorf tubes with 1 ml of normal saline and incubated at 37° C. For measuring PdTMPyP4 release via absorbance, a 10 μl sample were removed and diluted 1:100 with DDW, and absorbance of the resulting solution measured in the spectrophotometer at 415 nm for the first 28 days. […] The removal of a 10 μl sample from the fresh saline solution required a 1:10 dilution in DDW for appropriate reading. […] To compare the release of PdTMPyP4 after the various dilutions, the concentrations were normalized to the dilution factor used during the first 28 days (1:100).

[3] = test system: L428 Hodgkin's lymphoma cells
Description: In these experiments, PdTMPyP4/PLGA rods, manufactured as described in the Example 1, were used to release and maintain the continuous exposure of exponentially-growing L428 Hodgkin's Lymphoma cells to PdTMPyP4 throughout the 8 day experiment. To maintain and encourage exponential growth, cells were split before they neared their maximum density 1.5×10^6 cells/ml. Precautions were taken, in advance, to prevent the dilution of the drug during cell splitting by placing the rods into the medium that would be used when splits were required. Cells were initially seeded into each of 3 different treatment flasks at a cell density of 3.0×10^5 cells/ml in a volume of 25 ml. The cultures were split at 120 and 192 hours. The flasks consisted of:
Fourteen ‘medium-transfer’ flasks were prepared in advance for use during the splitting of the flasks. Twelve (6 each) of these contained 25 ml of complete medium and either 2 PdTMPyP4/PLGA rods or 2 blank PLGA rods.
Two additional flasks contained 25 ml conditioned medium were prepared in advance, by removing from previously grown cells and sterilizing, and whereto either PdTMPyP4/PLGA or 2 PLGA rods were added. This approach permitted the same exponential growth conditions for all treatments even when the flasks were split.
When cells in either flask A, B, or C neared their maximum cell density and required splitting, all flasks were split at this same time and medium from the transfer flasks was added to both the original and new flasks to restore the volume to 25 ml. A 3-ml aliquot of cells was removed from the flasks containing the suspension cells and was counted on a daily basis using a hemocytometer and trypan blue exclusion. The volume removed was replaced with the pretreated medium. […] Cells in each of the split dishes were counted, and counts from all flasks were combined to yield the total number of cells. By combining the cell counts from the split flasks, and using the total cell number, technical errors in counting the cells from the different flasks were reduced.

## C[n+]1ccc(-c2c3nc(c(-c4cc[n+](C)cc4)c4ccc([n-]4)c(-c4cc[n+](C)cc4)c4nc(c(-c5cc[n+](C)cc5)c5ccc2[n-]5)C=C4)C=C3)cc1.[Pd+2] [PdTMPyP4, Palladium-tagged tetra (4-N-methylpyridyl) porphyrin]
Cellular DNA; compared with naive TMPyP4
  effect of Pd tag on DNA uptake of the porphyrin: does not alter DNA uptake
Cellular DNA; incubation 24 or 48 h with graded concentrations
  uptake in DNA converted to moles: about 1.7×10^−14 mol
Cellular DNA; incubation 24 or 48 h with graded concentrations, ICP-MS
  measured uptake of Pd atoms in the DNA of the cell: about 10^9 Pd atoms
[1]
  plasma levels by the second and third week: restoration of plasma levels to that on day 0
[1]; four mice, weekly measurements
  PdTMPyP4 concentration in blood plasma: negligible concentrations
telomerase
  telomerase activity inhibition: superior inhibition
[2]
  duration of gradual and continuous release: > 30 days
[3]; 19-day experiment, continuous release from PLGA rods
  time of sudden decrease in cells exposed: about 200 h
[3]; 19-day experiment, from about 200 h through remaining 11 days
  factor by which cell number was lower than with the other treatments: 5-6 times
[3]; 8 day experiment, 264 h, versus untreated and blank PLGA
  cell number compared to the other treatments at end of experiment: lower
[3]; continuous exposure via rods
  time to L428 cell lethality after telomerase inhibition: about 8 days
